A short description of the assay: Bitter masking test: aqueous omeprazole solutions tasted by a panel in duo comparison tests. The assay is classed as in vivo. Conditions: 500 ppm omeprazole; for Masking effect on the bitterness of omeprazole (in words): 100 ppm additive. An excerpt:
To test the bitter masking effect, aqueous solutions, each containing 500 ppm omeprazole
(V1) alone or together (1) with 100 ppm eriodyctiol (ED) or (2) with 100 ppm homoeriodyctiol sodium salt (HE) or (3) with 100 ppm eriodyctiol+100 ppm homoeriodyctiol sodium salt or (V4) with 100 ppm 4′-fluoro-6-methoxyflavanone as a reference substance that has no masking effect, were tasted. Solutions 2-5 were each tasted by an experienced panel of 20-30 testers in a randomized order against solution 1 in duo comparison tests and the bitterness of each sample was estimated on a scale of 0 to 100.

Structures are written as SMILES.

As to `COc1ccc2[nH]c([S+]([O-])Cc3ncc(C)c(OC)c3C)nc2c1` (racemic) [Example V1, (RS)-5-methoxy-2-[(4-methoxy-3,5-dimethylpyridin-2-yl)methanesulfinyl]-1H-benzoinnidazole, reference compound], the Bitterness (mean panel estimate (20-30 testers) on a scale of 0 to 100, aqueous solution, additives 100 ppm each) is recorded as 80. For `O=C1CC(c2ccc(O)c(O)c2)Oc2cc(O)cc(O)c21` (stereo not drawn) [ED, 2-(3,4-dihydroxyphenyl)-5,7-dihydroxy-4-chronnanone], the “Masking effect on the bitterness of omeprazole (in words)” value is reported as “act on their own as masking agents”. On the same count and under the same terms, in the case of `COc1cc(C2CC(=O)c3c(O)cc(O)cc3O2)ccc1O` (stereo not drawn) [HE, 5-7-dihydroxy-2-(4-hydroxy-3-methoxyphenyl)-4-chronnanone] it was “act on their own as masking agents”.

Values taken from patent US20190240187A1, “ORAL PREPARATIONS WITH OMEPRAZOLE OR PANTOPRAZOLE” (SYMRISE AG, priority 2015, published 2019).
